# US6441053B1, “Inhibitors of glycogen synthase kinase-3 and methods for identifying and using the same” (The Trustees of the University of Pennsylvania, priority 1996, dated 2002)
# Read-outs that look alike come from different tables or passages of the source.
# Legend:
# [1] = biological target: GSK-3β (Oryctolagus cuniculus, UniProt G1T8E2); assay: In vitro GSK-3β activity assay (32P incorporation into substrate); type: biochemical, rabbit; details: for inhibition of phosphorylation of peptide substrate by GSK-3β: 20 mM of the salt in the assay mixture; for GSK-3β phosphorylation of I-2: 20 mM salt, GS-2 and τ protein phosphorylation not inhibited
# Chain of GSK-3β (G1T8E2 1-432): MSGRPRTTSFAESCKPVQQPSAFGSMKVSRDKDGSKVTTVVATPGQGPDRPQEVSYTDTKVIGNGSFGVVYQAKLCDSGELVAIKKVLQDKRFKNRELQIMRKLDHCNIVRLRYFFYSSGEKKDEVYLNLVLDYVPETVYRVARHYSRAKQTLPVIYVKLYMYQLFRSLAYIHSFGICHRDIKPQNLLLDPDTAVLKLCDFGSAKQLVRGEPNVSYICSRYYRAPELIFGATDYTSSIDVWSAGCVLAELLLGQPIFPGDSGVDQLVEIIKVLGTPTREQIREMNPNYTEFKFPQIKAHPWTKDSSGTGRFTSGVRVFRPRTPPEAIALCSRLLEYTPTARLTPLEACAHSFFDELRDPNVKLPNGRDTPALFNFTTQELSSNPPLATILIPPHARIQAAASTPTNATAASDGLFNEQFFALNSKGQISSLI
# Experimental: GSK-3β was assayed as described in the following paragraph using 0.5-1.0 units of GSK-3β per assay. […] GSK-3 buffer comprises 20 mM Tris-HCl, 10 mM MgCl2, 5 mM dithiothreitol, and has a pH of 7.5 at 20° C.
# The assay mixture comprised 1×GSK-3 buffer, an amount of a kinase enzyme corresponding to 0.5-1.0 unit of activity, a substrate, and 200 μM [γ^32P]-ATP (approximately 500 μCi/μmol). The assay mixture was incubated for a selected period of time following which incorporation of ^32P into the substrate was determined by standard methods.
# When I-2 was used as the substrate for […] in the assay, I-2 was present at a concentration of 50 μg/ml. […] The activities of protein kinase A (PKA), mitogen-activating protein kinase (ERK-1/MAP kinase), and casein kinase II (CKII) were assayed under conditions similar to those used to assay […] activity, except that β-mercaptoethanol was included in the PKA assays.
# [2] = biological target: T1, inositol monophosphatase (IMPase) (Xenopus laevis, UniProt P29219); assay: IMPase activity in vivo in injected ventral-vegetal blastomeres; details: 10 nl of 5 mM L-690,330 microinjected into blastomeres
# T1 construct: The thirty embryos were then lysed in 300 μl of IMPB; endogenous in cells; host or cells: Xenopus embryos (32-cell stage lysate supernatant; 8- to 16-cell stage embryos injected in vivo)
# T1 sequence (P29219 whole entry): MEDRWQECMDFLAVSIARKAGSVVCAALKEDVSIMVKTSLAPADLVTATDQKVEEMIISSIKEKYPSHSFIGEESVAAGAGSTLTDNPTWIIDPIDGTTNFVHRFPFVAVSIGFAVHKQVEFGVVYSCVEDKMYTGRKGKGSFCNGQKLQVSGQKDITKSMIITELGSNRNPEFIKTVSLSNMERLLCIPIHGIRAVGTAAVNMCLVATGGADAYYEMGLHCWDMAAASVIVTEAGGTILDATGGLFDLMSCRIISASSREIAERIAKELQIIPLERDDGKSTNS
# Experimental: Following dilution, 10 nl of the diluted ^3H-inositol-1-phosphate solution was injected into a single ventral-vegetal blastomere of an embryo which was at the 8- to 16-cell stage. […] The lysate was prepared and applied to Dowex columns as described above.
# [3] = biological target: IMPase (Homo sapiens, UniProt P29218); details: Atack et al., 1993; cited from earlier work
# Chain of IMPase (P29218 whole entry): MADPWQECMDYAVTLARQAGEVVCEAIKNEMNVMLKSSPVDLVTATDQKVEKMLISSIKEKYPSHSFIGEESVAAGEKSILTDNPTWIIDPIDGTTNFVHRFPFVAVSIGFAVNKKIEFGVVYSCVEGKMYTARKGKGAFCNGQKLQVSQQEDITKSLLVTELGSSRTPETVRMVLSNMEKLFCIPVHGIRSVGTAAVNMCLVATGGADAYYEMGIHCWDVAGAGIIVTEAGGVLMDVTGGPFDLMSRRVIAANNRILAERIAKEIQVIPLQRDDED
# [4] = biological target: T1, inositol monophosphatase (IMPase); assay: IMPase activity in lysates prepared from Xenopus embryos; type: biochemical
# Experimental: Thirty Xenopus embryos at the 32-cell stage were washed with 1 ml of 50 mM Tris, pH 7.8, 250 mM KCl, 3 mM MgCl2 (IMPB). The thirty embryos were then lysed in 300 μl of IMPB. The lysate was centrifuged for 5 minutes at 20,000×g at 4° C. and the resulting lysate supernatant was recovered. […] Each lysate supernatant mixture was then incubated at room temperature for 5 minutes. One μl of ^3H-inositol-1-phosphate was added to each lysate supernatant mixture, and the incubation was continued for an additional 25 minutes. Each lysate supernatant mixture was then diluted with 1.0 ml of 0.1×MMR, boiled for 5 minutes, and applied to Dowex columns as described (Berridge et al., 1983, Biochem. J. 212:473-482). Inositol was not retained by the Dowex column, and inositol-1-phosphate was eluted by application of 3 ml of 0.1 M formic acid/1.5 M ammonium formate (Berridge et al., 1983, supra). Each assay was repeated two to four times, and similar results were obtained among all replicates.
# [5] = system: Xenopus laevis embryo; assay: Dorsalization and development of treated or microinjected Xenopus embryos; type: in vivo
# Experimental: Xenopus eggs were fertilized in vitro according to well established protocols (Peng, 1991, in Appendix A of Methods in Cell Biology, Kay et al., eds., Academic Press Inc, San Diego). Microinjection of embryos was performed using embryos at the 1-cell to 32-cell stage, and a volume of 5-10 nl was injected into each embryo.
# L-690,330 was dissolved in water to form a solution having a concentration of L-690,330 in the range of 0.1 to 10 mM, and 5 to 10 nl of the L-690,330 solution was injected into the ventral vegetal region of 4, 8, 16, and 32 cell embryos. All four cells of individual 4-cell embryos were injected in separate experiments.
# [6] = system: Xenopus embryos; assay: Second axis formation in Xenopus embryos injected with DN-GSK-3 mRNA with or without myo-inositol; type: in vivo, Xenopus laevis
# Experimental: mRNA specifying DN-GSK-3 was microinjected into the subequatorial region of a ventral-vegetal blastomere in an embryo at the 16-cell stage. A volume of either 5 nl or 10 nl was microinjected depending upon the concentration of mRNA in the solution being microinjected. The same procedure was used to microinject myo-inositol into an embryo. In most experiments, 10 embryos were harvested at stage 8 to assess the level of DN-GSK-3protein expressed from the injected mRNA, and the level of DN-GSK-3protein in other embryos was assessed at stage 30-35.
smiles,measurement,setting,value
Cl.N [NH4Cl],inhibition of phosphorylation of peptide substrate by GSK-3β,[1],Little inhibition
"CC(Oc1ccc(O)cc1)(P(=O)(O)O)P(=O)(O)O [L-690,330]",level of inhibition of IMPase activity in vivo compared with 10 nl of 0.3 M LiCl,[2],several times greater
same,potency as inhibitor of IMPase activity relative to lithium,[3],approximately thousand-fold
same,IC50,"[4]; read-out: concentration giving 50% inhibition of in vitro IMPase activity, lysates prepared from Xenopus embryos",~1 µM
same,IC50,"[4]; read-out: concentration of L-690,330 giving approximately 50% inhibition of IMPase activity, FIG. 1 Panel A legend",~1000 µM
same,dorsalization of Xenopus embryo,"[5]; 0.3 M LiCl for 6 minutes at 32-cell stage, or injection of 10 nl of 5 mM L-690,330",did not exhibit dorsalization
same,toxicity in microinjected embryos,"[5]; highest doses of L-690,330 used",mild nonspecific toxicity
same,effect on development of Xenopus embryos,[5]; microinjected embryos,no discernible effect
O[C@H]1[C@H](O)[C@@H](O)[C@H](O)[C@@H](O)[C@H]1O [myo-inositol],effect of coinjection on second axis induction by DN-GSK-3,[6]; coinjected with DN-GSK-3 mRNA into ventral-vegetal cell of 16-cell embryos,clearly reduced the frequency and the extent of second axis induction
same,effect on synthesis of DN-GSK-3 protein,[6]; in vivo,did not inhibit
[Cl-].[Na+] [NaCl],inhibition of phosphorylation of peptide substrate by GSK-3β,[1],Little inhibition
same,GSK-3β phosphorylation of I-2,[1],partially inhibited
[Cl-].[K+] [KCl],inhibition of phosphorylation of peptide substrate by GSK-3β,[1],Little inhibition
same,GSK-3β phosphorylation of I-2,[1],partially inhibited
Cn1cc(C2=C(c3cn(CCCSC(=N)N)c4ccccc34)C(=O)NC2=O)c2ccccc21 [Ro31-8220],IC50,"[1]; read-out: concentration giving approximately 50% inhibition of GSK-3β activity, assays of Example 1, 0 to 10 μM tested",~40 nM
[Cl-].[Cs+] [CsCl],inhibition of phosphorylation of peptide substrate by GSK-3β,[1],Little inhibition
